Ends that are not written are not given here. Peptide text beside a SMILES is read from it.
How the values were obtained:
Format in all cases: cell-based, human
μHF = test: Cytotoxicity testing on μHF, viability by ATP (CellTiter Glo); settings: for Mean ATP content in μHF after 24 H treatment: N = 5 μHF, CN 1306.1; for ATP content relative to threshold (50% of negative control): 1-10-100 ng/ml, 24 h
Experimental: Cytotoxicity testing has been performed on μHF at day 3 in order to select the testing concentration of peptides for the following screening assays.
Treatments: Negative control: 1 (not treated), Positive control: FGF18 100 ng/ml, Treatments: 39 (13 peptides, 3 concentrations each: 1-10-100 ng/ml), Biological replicates: 5 μHF for each treatment, Time-point: 1 (after 24 H of treatment), Read-out parameters: Viability by ATP
The test items have been tested at 3 concentrations/each for their cytotoxicity potential after 24 h exposure on μHF. FGF18 100 ng/ml have been used as positive control. The toxicity has been evaluated by ATP release on n=5 μHF.
The μHF microtissue were reconstructed using the hanging drop method into GRAVITY^PLUS plates from InSphero (Switzerland) using fibroblasts and keratinocytes from human origin. The MTs were Transferred in GRAVITYTRAP for treatments and manipulation. Culture conditions: incubator at 37° C., 5% CO2, saturated humidity with adequate culture medium. The Fibroblast batch and keratinocytes has been tested for the absence of HIV, Hepatitis B, Hepatitis C, Mycoplasma. The maintenance medium has been tested for sterility.
The kit CellTiter Glo® (Promega) Luminescent cell Viability Assay is used for Adenosine-5- triphosphate (ATP) quantification. The assay procedures involves adding the single reagent directly to MTs cultured in medium. The cell lysis and the generation of a luminescent signal is proportional to the amount of ATP present. ATP measurements have been performed on 5 biological replicates and mean and standard deviation have been calculated. The threshold of 50% viability in comparison to negative control have been used as cut off; the max concentration possible over threshold has been used for the efficacy screening test.
For the selection of test concentrations of each peptide, the 50% ATP content in comparison with negative (not treated) control has been selected as threshold. The higher concentration over the selected threshold has been used for efficacy screening test for peptides form P1 to P9.

regressive μHF = test: Overall efficacy in mimicking FGF18 in regressive μHF (CCND1, FGF7, WNT5B together); settings: FGF18 10-100 ng/ml, after TGFβ1
Description: (§1) To assess the biological activity of the identified set of 13 peptides and their capability to maintain quiescence state, the Vitroscreen μHF standard model has been adapted pushing it in a regressive state (catagen-like) by the application of TGFβ1 to reduce the expression of genes linked to active growth phase (anagen) and to make the model more responsive to FGF18 as quiescence signal.
(§2) In particular, in this regressive model, the application of TGFβ1 to 72H induces a catagen-like status with the down-regulation of FGF7 anagen gene and CCND1 as proliferation marker. […]
The μHF model has been used for a screening study with the aim to characterize the 13 peptides designed on the basis of FGF18 structure in order to mimic its biological function in retarding hair growth. The following test items have been evaluated after the selection of test concentration in a preliminary tox assay.
After the selection of test concentrations of the peptides, efficacy was performed on regressing μHF (TGFβ1 treated) at day 5 in order to evaluate the further efficacy of peptides to decrease the gene expression of proliferation (CCND1) and anagen marker (FGF7). The potential down-regulation of epithelial growth regulator WNT5B has been evaluated as an optional parameter. […]

WNT5B = test: Regressive μHF efficacy screening: WNT5B gene expression by RTqPCR; settings: FGF18 100 ng/ml, after TGFβ1 10 ng/ml 72H
Description: as §1, §2
(§3) After the selection of test concentrations of the peptides, efficacy was performed on regressing μHF (TGFβ1 treated) at day 5 in order to evaluate the further efficacy of peptides to decrease the gene expression of proliferation (CCND1) and anagen marker (FGF7). The potential down-regulation of epithelial growth regulator WNT5B has been evaluated as an optional parameter.
(§4) Treatments: Negative control: 1 (not treated), Regression inducer: TGFβ1 10 ng/ml, Positive control: FGF18 10-100 ng/ml, Treatments: 13 peptides (1 concentration each), Biological replicates: 1 biological replicates from pool of 20 μHF, Time-point: after 72H of TGFβ1 induction followed by 24H of peptide or FGF18 application, Read-out parameters: 1 Proliferation gene (CCND1) by RTqPCR, 2 anagen regulators (FGF7, WNT5B) by RTqPCR […]

CCND1 = test: Regressive μHF efficacy screening: CCND1 gene expression by RTqPCR
Description: as §1, §2, §3, §4

FGF7 = test: Regressive μHF efficacy screening: FGF7 gene expression by RTqPCR
Description: as §1, §2, §3, §4

[1] = FGF18 100 ng/ml, after TGFβ1 10 ng/ml 72H

| Molecule | Mean ATP content in μHF after 24 H treatment (μHF; 1 ng/ml) | Mean ATP content in μHF after 24 H treatment (μHF; 10 ng/ml) | Mean ATP content in μHF after 24 H treatment (μHF; 100 ng/ml) | other results |
| --- | --- | --- | --- | --- |
| RTGQYK [Peptide P2, RTGQYK] | 1522.4 nM | 1838.6 nM | 1687.8 nM | – |
| CC(C)[C@H](NC(=O)[C@H](CCCNC(=N)N)NC(=O)[C@@H](N)CC(=O)O)C(=O)N[C@@H](CCC(=O)O)C(=O)O [Peptide P10, DRVE] (H-DRVE-OH; N-terminus and C-terminus assumed) | 1727.8 nM | 1706.1 nM | 1329.1 nM | ATP content relative to threshold (50% of negative control) (μHF): over the threshold |
| Fibroblast Growth Factor 18 [FGF18] | – | – | 1560.3 nM | Effect in enhancing the down regulation of anagen markers (regressive μHF): dose-dependent effect; Effect on WNT5b expression after TGFβ1 (WNT5B): decrease; Effect on CCND1 expression after TGFβ1 (CCND1; [1]): further down-regulation; Effect on FGF7 expression after TGFβ1 (FGF7; [1]): further down-regulation |
| CC[C@H](C)[C@H](N)C(=O)N[C@@H](CCC(=O)O)C(=O)N[C@@H](CCCCN)C(=O)N[C@H](C(=O)O)C(C)C [Peptide P12, IEKV] (H-IEKV-OH; N-terminus and C-terminus assumed) | 435.7 nM | 562.8 nM | 370.0 nM | ATP content relative to threshold (50% of negative control) (μHF): under-threshold |
| N=C(N)NCCC[C@H](NC(=O)[C@@H](N)CC(=O)O)C(=O)N[C@@H](CC(=O)O)C(=O)N[C@@H](CCC(=O)O)C(=O)O [Peptide P8, DRDE] (H-DRDE-OH; N-terminus and C-terminus assumed) | 1148.5 nM | 1155.5 nM | 1229.3 nM | – |
| NCCCC[C@H](NC(=O)[C@@H](N)CCC(=O)O)C(=O)N[C@@H](CC(N)=O)C(=O)N[C@@H](CC(=O)O)C(=O)O [Peptide P7, EKND] (H-EKND-OH; N-terminus and C-terminus assumed) | 1275.4 nM | 1243.9 nM | 1258.8 nM | – |
| CC(C)C[C@H](NC(=O)[C@H](CCC(N)=O)NC(=O)[C@@H](N)CCCCN)C(=O)N[C@@H](CCCNC(=N)N)C(=O)O [Peptide P1, KQLR] (H-KQLR-OH; N-terminus and C-terminus assumed) | 1876.5 nM | 2007.2 nM | 1903.1 nM | – |
| NCCCC[C@H](NC(=O)[C@@H](N)CC(=O)O)C(=O)N[C@@H](CO)C(=O)N[C@@H](CCC(=O)O)C(=O)O [Peptide P9, DKSE] (H-DKSE-OH; N-terminus and C-terminus assumed) | 1521.4 nM | 1273.6 nM | 1469.4 nM | – |
| C[C@@H](O)[C@H](NC(=O)[C@H](CCCNC(=N)N)NC(=O)[C@@H](N)CC(=O)O)C(=O)N[C@@H](CC(=O)O)C(=O)O [Peptide P11, DRTD] (H-DRTD-OH; N-terminus and C-terminus assumed) | 463.1 nM | 447.0 nM | 149.0 nM | ATP content relative to threshold (50% of negative control) (μHF): under-threshold |
| C[C@@H](O)[C@H](NC(=O)[C@H](CCCNC(=N)N)NC(=O)[C@@H](N)CCCCN)C(=O)NCC(=O)O [Peptide P6, KRTG] (H-KRTG-OH; N-terminus and C-terminus assumed) | 1122.0 nM | 1116.0 nM | 1313.3 nM | – |
| CC(C)[C@H](NC(=O)[C@H](CCCNC(=N)N)NC(=O)[C@@H](N)CC(=O)O)C(=O)O [Peptide P13, DRV] (H-Asp-Arg-Val-OH) | 576.0 nM | 516.6 nM | 404.1 nM | ATP content relative to threshold (50% of negative control) (μHF): under-threshold |
| Transforming Growth Factor Beta 1 [TGFβ1] | – | – | – | Effect on expression of CCND1 versus CN (CCND1; TGFβ1 10 ng/ml, 72H): reduced; Effect on expression of FGF7 versus CN (FGF7; TGFβ1 10 ng/ml, 72H): reduced |
| CC(C)C[C@H](NC(=O)[C@H](CCCNC(=N)N)NC(=O)[C@@H](N)CC(=O)O)C(=O)N[C@@H](CCCCN)C(=O)O [Peptide P3, DRLK] (H-DRLK-OH; N-terminus and C-terminus assumed) | 1026.2 nM | 924.8 nM | 1631.2 nM | – |
| C[C@@H](O)[C@H](NC(=O)[C@H](CCCCN)NC(=O)[C@@H](N)CCC(=O)O)C(=O)N[C@@H](CC(=O)O)C(=O)O [Peptide P4, EKTD] (H-EKTD-OH; N-terminus and C-terminus assumed) | 1567.7 nM | 1715.2 nM | 1597.4 nM | – |
| NCCCC[C@H](NC(=O)[C@@H](N)CCC(=O)O)C(=O)N[C@@H](CC(=O)O)C(=O)N[C@@H](CC(=O)O)C(=O)O [Peptide P5, EKDD] (H-EKDD-OH; N-terminus and C-terminus assumed) | 1263.3 nM | 1108.9 nM | 1255.5 nM | – |
